13 compounds from patent US10934297B2, “5-heteroaryl substituted indazole-3-carboxamides and preparation and use thereof” (Samumed, LLC, priority 2018, dated 2021) can be followed below.

Like-named read-outs stand apart in the source and are kept apart here. Some results are limits rather than exact numbers.

For one assay, the target named is DYRK1A kinase (Homo sapiens (Human), UniProt Q13627). The assay can be described thus: DYRK1A kinase assay (Ser/Thr 18 peptide Z-lyte FRET). Format: biochemical. To be noted: read-out: EC50 (method: IC50). In short, it runs like this: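 Kinase reactions with compound ran 1 h at room temperature in duplicate, and development reagent was then added for another hour.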

Assay [1] relates to Wnt activity (Sp5-Luc reporter in SW480 cells). The assay can be described thus: Screening assay for Wnt activity: Sp5-Luc reporter gene assay in SW480 colon carcinoma cells. Format: cell-based, human. To be noted: 36 to 48 hours. In short, it runs like this: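 EC50 values come from a variable-slope four-parameter fit of luminescence normalized to DMSO-only wells. The read-out follows 36–48 h incubation at 37 °C, 5% CO2, in DMEM containing 1% fetal bovine serum. Cells are hygromycin-selected SW480 stably expressing firefly luciferase under a Wnt-responsive Sp5 promoter (eight TCF/LEF sites).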

For assay [2], the system named is SW480 colon carcinoma cells. The assay can be described thus: Cell viability assay (CellTiter-Glo) in SW480 colon carcinoma cells. Particulars: four days. Format: cell-based, human. In short, it runs like this:
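Viability was taken from CellTiter-Glo ATP luminescence, read about 12 min after reagent addition, relative to DMSO controls. The cells were Sp5-Luc reporter SW480 colon carcinoma cells, 2,000/well in 1% FBS DMEM, exposed to compound for four days at 37 °C.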

The target of another assay is GSK3β kinase (Homo sapiens (Human), UniProt P49841). In words: GSK3β kinase assay (Ser/Thr 09 peptide Z-lyte FRET). Particulars: read-out: EC50 (method: IC50). Format: biochemical. The essentials: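 Non-radioactive Z-lyte FRET read-out, kinase activity expressed as coumarin/fluorescein emission ratio. Compounds incubated with the reaction mixture one hour at room temperature in duplicate, then development buffer added for another hour. IC50 from non-linear regression of dose-response curves.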

Assay [3] relates to primary human fibroblasts derived from IPF patients (LL29 cells). The assay can be described thus: Inhibition of the fibrotic process: αSMA staining in TGF-β1 treated LL29 fibroblasts. Format: cell-based. Particulars: LL29 cells, TGF-β1 20 ng/mL, 4 days, % αSMA positive cells. The essentials:
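LL29 fibroblasts from IPF patients, in F12 medium with 1% FBS, treated with TGF-β1 plus compound; TGF-β1 with DMSO as positive control, DMSO alone as negative control. After 4 days' incubation, SYTOX green nucleic acid stain added at 1 μM final, 30 min at room temperature.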

The test system of the next assay is IL-6. The assay can be described thus: IL-6 inhibition in LPS-stimulated human peripheral blood mononuclear cells (HTRF). Format: cell-based. Particulars: for EC50: huPBMCs, LPS 50 ng/mL, 22 hours, IL-6 HTRF; for inhibition at 10 µM: read-out: percent inhibition at 10 μM. The essentials: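 HTRF 665/620 nm ratio, read after 3 h antibody incubation at room temperature, quantified IL-6 released by fresh human PBMCs (1×10e6 cells/mL, 1% FBS-RPMI). The cells got compound, then 50 ng/mL LPS at 2 h, followed by a further 22 h at 37° C. EC50 came from DMSO-normalized readings run in duplicate.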

Assay [4] concerns primary human mesenchymal stem cells (hMSCs). In words: Tenocyte differentiation assay (SCXA-positive cells) in hMSCs. Format: cell-based. To be noted: for percent in parentheses under EC50 >100: given for EC50 >100 μM, meaning not defined in this example; for EC50: hMSCs, 4 days, SCXA positive cells. From the text: Representative compounds were screened using primary human mesenchymal stem cells (hMSCs) to determine their ability to induce tenocyte differentiation (process by which tendon is developed).
Primary human mesenchymal stem cells (hMSCs) were purchased from Lonza (Walkersville, Md.) and expanded in Mesenchymal Stem Cell Growth Media (Lonza). Cells between passage 3 and 6 were used for the experiments.
Cells were fixed using 4% formaldehyde (Electron Microscopy Sciences), and stained with anti-Sclerasis (anti-SCXA) antibodies (Abgent, San Diego, Calif.) [Webb S., et.al., Retinoic acid receptor signaling preserves tendon stem cell characteristics and prevents spontaneous differentiation in vitro, Stem Cell Research & Therapy 2016, 7:45] overnight at 4° C. […] Number of cells positive for SCXA in each well was quantified using the CellInsight CX5. Data was normalized to the average of 12 DMSO treated wells on the same plate using Dotmatics Studies module. The normalized averages (fold change over DMSO) of 3 replicate wells for each compound concentration were calculated. Due to solubility limitations of some of the compounds, values for higher doses were manually corrected and curve fitting and EC50 determinations were performed using Dotmatics Studies.

The mark [5] stands for this setting: Homo sapiens, Mesenchymal stem cells, 96 h.

GSK3β kinase, sequence (P49841 whole entry): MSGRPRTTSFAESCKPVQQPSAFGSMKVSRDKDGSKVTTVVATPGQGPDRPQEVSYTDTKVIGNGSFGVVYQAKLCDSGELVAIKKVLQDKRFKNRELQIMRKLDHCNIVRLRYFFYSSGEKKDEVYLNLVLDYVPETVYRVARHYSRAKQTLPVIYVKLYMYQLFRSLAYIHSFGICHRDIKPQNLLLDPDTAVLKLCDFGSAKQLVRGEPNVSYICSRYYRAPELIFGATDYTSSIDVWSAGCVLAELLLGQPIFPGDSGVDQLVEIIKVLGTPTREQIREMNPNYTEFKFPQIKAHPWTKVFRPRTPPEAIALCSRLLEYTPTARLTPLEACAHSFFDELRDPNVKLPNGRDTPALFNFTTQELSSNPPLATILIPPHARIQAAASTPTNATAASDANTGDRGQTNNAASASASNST

“5-(1,2-Dimethyl-1H-imidazol-5-yl)-N-(2-methylthiazol-5-yl)-1H-indazole-3-carboxamide [Compound 139]”: the IC50 on DYRK1A kinase (recombinant DYRK1A, 30 μM ATP, one hour, column head prints EC50) is 0.004 µM; on GSK3β kinase (recombinant GSK3β, 46 μM ATP, one hour, column head prints EC50) it was 0.02 µM. In addition, the EC50 was 0.335 µM in assay [1]; 0.473 µM in assay [2]; 1.24 µM in assay [3]; 3.11 µM in the assay with IL-6; over 100 µM in assay [4]. Also, the “percent in parentheses under EC50 >100” value in assay [4] is on record as “(21.2%)”.
`Cn1cc(-c2cc(F)c3[nH]nc(C(=O)NC4CCC(F)(F)CC4)c3c2)cn1` [Compound 16, N-(4,4-Difluorocyclohexyl)-7-fluoro-5-(1-methyl-1H-pyrazol-4-yl)-1H-indazole-3-carboxamide]: the IC50 at DYRK1A kinase was determined as 0.378 µM; at GSK3β kinase, 0.041 µM. Also, the EC50 in assay [1] (Homo sapiens) was over 10 µM; in assay [2] (Homo sapiens, 96 h) it was 7.89 µM; in assay [3] (Homo sapiens, Fibroblast, 96 h) it was 1.01 µM; in the assay on IL-6 (Homo sapiens, PBMC), over 10 µM; in assay [4] (setting [5]), 1.38 µM. In the assay with IL-6 (Homo sapiens, PBMC), the inhibition at 10 µM is 37.5%.
Take `CC(C)CN1CC[C@H](NC(=O)c2n[nH]c3ccc(-c4cnn(C)c4)cc23)[C@H](F)C1` [Compound 30, N-((3R,4S)-3-Fluoro-1-isobutylpiperidin-4-yl)-5-(1-methyl-1H-pyrazol-4-yl)-1H-indazole-3-carboxamide]: the half-maximal inhibitory concentration (IC50) is 0.012 µM at DYRK1A kinase and 0.061 µM at GSK3β kinase. For the same compound, the EC50 in assay [1] (Homo sapiens) is over 10 µM; in assay [2] (Homo sapiens, 96 h), over 10 µM; in assay [3] (Homo sapiens, Fibroblast, 96 h), over 10 µM; with IL-6 (Homo sapiens, PBMC), over 10 µM; in assay [4] (setting [5]), 1.47 µM.
Turning to `CC(C)CN1CC[C@H](NC(=O)c2n[nH]c3cc(F)c(-c4cnn(C)c4)cc23)[C@@H](F)C1` [Compound 34, 6-Fluoro-N-((3S,4S)-3-fluoro-1-isobutylpiperidin-4-yl)-5-(1-methyl-1H-pyrazol-4-yl)-1H-indazole-3-carboxamide], the IC50 at DYRK1A kinase came to 0.016 µM; on GSK3β kinase, 0.05 µM. For the same compound, the EC50 was over 10 µM in assay [1] (Homo sapiens); 1.84 µM in assay [2] (Homo sapiens, 96 h); 0.439 µM in assay [3] (Homo sapiens, Fibroblast, 96 h); 3.11 µM with IL-6 (Homo sapiens, PBMC); 1.32 µM in assay [4] (setting [5]).
On to `CC(C)CN1CC[C@H](NC(=O)c2n[nH]c3c(F)cc(-c4cnn(C)c4)cc23)[C@@H](F)C1` [Compound 35, 7-Fluoro-N-((3S,4S)-3-fluoro-1-isobutylpiperidin-4-yl)-5-(1-methyl-1H-pyrazol-4-yl)-1H-indazole-3-carboxamide], for which the values for the concentration for half-maximal inhibition (IC50) at DYRK1A kinase and on GSK3β kinase were 0.261 µM and 0.157 µM, respectively. The EC50 was 0.345 µM in assay [1] (Homo sapiens); 8.28 µM in assay [2] (Homo sapiens, 96 h); 0.288 µM in assay [3] (Homo sapiens, Fibroblast, 96 h); over 10 µM in the assay on IL-6 (Homo sapiens, PBMC); 2.07 µM in assay [4] (setting [5]). In addition, the inhibition at 10 µM in the assay on IL-6 (Homo sapiens, PBMC) was determined as 9.2%.
As to `Cc1ncc(-c2ccc3[nH]nc(C(=O)Nc4ccc(OC5CCN(C)CC5)cc4)c3c2)s1` [Compound 82, N-(4-((1-Methylpiperidin-4-yl)oxy)phenyl)-5-(2-methylthiazol-5-yl)-1H-indazole-3-carboxamide], the values for the IC50 at DYRK1A kinase and at GSK3β kinase were 0.007 µM and 0.041 µM, respectively. The EC50 in assay [1] (Homo sapiens) is 1.47 µM; in assay [2] (Homo sapiens, 96 h) it was 1.25 µM; in assay [3] (Homo sapiens, Fibroblast, 96 h) it was 0.288 µM; in the assay on IL-6 (Homo sapiens, PBMC) it was 3.93 µM; in assay [4] (setting [5]) it was over 100 µM. In addition, the “percent in parentheses under EC50 >100” value in assay [4] is reported as “(2.9%)”.
`CN1CCC(n2cc(-c3ccc4[nH]nc(C(=O)Nc5ccc(OC(F)F)nc5)c4c3)cn2)CC1` [Compound 88, N-(6-(Difluoromethoxy)pyridin-3-yl)-5-(1-(1-methylpiperidin-4-yl)-1H-pyrazol-4-yl)-1H-indazole-3-carboxamide]: the IC50 on DYRK1A kinase worked out at 0.016 µM; at GSK3β kinase, 0.774 µM. Moreover, the EC50 in assay [1] (Homo sapiens) worked out at 0.435 µM; in assay [2] (Homo sapiens, 96 h), 0.338 µM; in assay [3] (Homo sapiens, Fibroblast, 96 h) it was 0.624 µM; in the assay on IL-6 (Homo sapiens, PBMC) it was 8.78 µM; in assay [4] (setting [5]), 2.55 µM.
As to `CC(C)CN1CC[C@H](NC(=O)c2n[nH]c3ccc(-c4cnn(C5CC5)c4)cc23)[C@@H](F)C1` [Compound 99, 5-(1-Cyclopropyl-1H-pyrazol-4-yl)-N-((3 S,4S)-3-fluoro-1-isobutylpiperidin-4-yl)-1H-indazole-3-carboxamide], the IC50 worked out at 0.813 µM on DYRK1A kinase and 0.068 µM at GSK3β kinase. The EC50 worked out at 0.84 µM in assay [1] (Homo sapiens); 5.18 µM in assay [2] (Homo sapiens, 96 h); 0.855 µM in assay [3] (Homo sapiens, Fibroblast, 96 h); 3.28 µM with IL-6 (Homo sapiens, PBMC); 2.83 µM in assay [4] (setting [5]).
As for `Cc1ncc(-c2ccc3[nH]nc(C(=O)N[C@H]4CCN(CC(C)C)C[C@@H]4F)c3c2)n1C` [Compound 100, 5-(1,2-Dimethyl-1H-imidazol-5-yl)-N-((3 S,4 S)-3-fluoro-1-isobutylpiperidin-4-yl)-1H-indazole-3-carboxamide], the IC50 on DYRK1A kinase was 0.046 µM; at GSK3β kinase, 0.043 µM. The EC50 in assay [1] (Homo sapiens) was 1.02 µM; in assay [2] (Homo sapiens, 96 h), 8.02 µM; in assay [3] (Homo sapiens, Fibroblast, 96 h) it was 2.36 µM; in the assay on IL-6 (Homo sapiens, PBMC), over 10 µM; in assay [4] (setting [5]), 1.88 µM. In the assay on IL-6 (Homo sapiens, PBMC), the inhibition at 10 µM was found to be 5.5%.
For `Cn1cc(-c2cc(F)c3[nH]nc(C(=O)NC4CCN(CC(F)F)CC4)c3c2)cn1` [Compound 101, N-(1-(2,2-Difluoroethyl)piperidin-4-yl)-7-fluoro-5-(1-methyl-1H-pyrazol-4-yl)-1H-indazole-3-carboxamide], the results for the IC50 at DYRK1A kinase and on GSK3β kinase were 0.408 µM and 0.086 µM, respectively. Further, the EC50 in assay [1] (Homo sapiens) was over 10 µM; in assay [2] (Homo sapiens, 96 h), over 10 µM; in assay [3] (Homo sapiens, Fibroblast, 96 h), over 10 µM; with IL-6 (Homo sapiens, PBMC) it was over 10 µM; in assay [4] (setting [5]), over 100 µM. In addition, in the assay with IL-6 (Homo sapiens, PBMC), the inhibition at 10 µM came to 14.1%. The “percent in parentheses under EC50 >100” value in assay [4] is recorded as “(33.0%)”.
As for `Cn1cc(-c2ccc3[nH]nc(C(=O)NCC(F)(F)CN4CCCC4)c3c2)cn1` [Compound 106, N-(2,2-Difluoro-3-(pyrrolidin-1-yl)propyl)-5-(1-methyl-1H-pyrazol-4-yl)-1H-indazole-3-carboxamide], the IC50 on DYRK1A kinase stood at 0.04 µM; at GSK3β kinase, 0.014 µM. Besides, the EC50 was 0.685 µM in assay [1] (Homo sapiens); over 10 µM in assay [2] (Homo sapiens, 96 h); 0.795 µM in assay [3] (Homo sapiens, Fibroblast, 96 h); 6.85 µM in the assay with IL-6 (Homo sapiens, PBMC); 1.3 µM in assay [4] (setting [5]).
For `Cn1cc(-c2cc(F)c3[nH]nc(C(=O)Nc4ccc(CN5CCCC5)cc4)c3c2)cn1` [Compound 119, 7-Fluoro-5-(1-methyl-1H-pyrazol-4-yl)-N-(4-(pyrrolidin-1-ylmethyl)phenyl)-1H-indazole-3-carboxamide], the IC50 on DYRK1A kinase is 0.021 µM; on GSK3β kinase it was 0.041 µM. Also, the EC50 in assay [1] (Homo sapiens) was 3.06 µM; in assay [2] (Homo sapiens, 96 h), 1.87 µM; in assay [3] (Homo sapiens, Fibroblast, 96 h), 0.315 µM; in the assay on IL-6 (Homo sapiens, PBMC), 1.93 µM; in assay [4] (setting [5]), 14 µM.
Turning to `CN1[C@@H]2CC[C@H]1CC(NC(=O)c1n[nH]c3ccc(-c4cnn(C)c4)cc13)C2` (stereo partly drawn) [Compound 146, 5-(1-Methyl-1H-pyrazol-4-yl)-N-((1R,5S)-8-methyl-8-azabicyclo [3.2.1]octan-3-yl)-1H-indazole-3-carboxamide], the EC50 is 1.58 µM in assay [1] (Homo sapiens); over 10 µM in assay [2] (Homo sapiens, 96 h); over 10 µM in assay [3] (Homo sapiens, Fibroblast, 96 h); over 10 µM with IL-6 (Homo sapiens, PBMC); over 100 µM in assay [4] (setting [5]). In the assay on IL-6 (Homo sapiens, PBMC), the inhibition at 10 µM is 4.7%. For the same compound, the “percent in parentheses under EC50 >100” value in assay [4] is “(35.9%)”.
